From article PMC8080777, “Discovery, optimization, and evaluation of non-bile acid FXR/TGR5 dual agonists” (Scientific Reports, 2021)

Biological target: T1, FXR (Homo sapiens, UniProt Q96RI1)
T1 construct: host or cells: CHO cells
T1 sequence (Q96RI1 1-486): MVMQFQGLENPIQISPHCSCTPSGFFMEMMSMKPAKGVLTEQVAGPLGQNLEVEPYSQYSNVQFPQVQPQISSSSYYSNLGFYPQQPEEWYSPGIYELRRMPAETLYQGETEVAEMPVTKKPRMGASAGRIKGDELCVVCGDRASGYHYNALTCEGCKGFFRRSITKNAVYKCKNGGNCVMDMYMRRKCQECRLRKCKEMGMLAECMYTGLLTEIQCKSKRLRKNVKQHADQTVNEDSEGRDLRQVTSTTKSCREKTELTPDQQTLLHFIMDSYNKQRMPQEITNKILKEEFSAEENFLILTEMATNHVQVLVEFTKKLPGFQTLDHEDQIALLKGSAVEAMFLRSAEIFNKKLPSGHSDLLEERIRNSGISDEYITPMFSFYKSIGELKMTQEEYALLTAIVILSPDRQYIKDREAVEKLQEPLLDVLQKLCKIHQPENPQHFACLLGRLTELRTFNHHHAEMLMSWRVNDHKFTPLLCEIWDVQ
Assay: CHO cell-based FXR luciferase reporter assay (Indigo Biosciences)
Conditions: for EC50: 4 parameter logistic fit; for Emax: CHO

Row | Compound | FXR agonist activity (in words) | FXR Efficacy (%) (0.1 µM) (% vs OCA 1 µM as 100%) | FXR Efficacy (%) (1 µM) (% vs OCA 1 µM as 100%) | EC50 [nM] | Emax [%] | FXR Efficacy (%) (10 µM) (10 µM, % vs OCA 1 µM as 100%)
1 | COc1cc(Cl)cc(N(CC23CCC(c4ccc(OC)c(C#N)c4)(CC2)CC3)C(=O)c2ccncc2C)c1 [Compound 20p] | strong dual agonist potencies | 57.1 | 98.8 | 190 | 28 | 
2 | COC(=O)/C=C/c1cccc(N(Cc2ccc(-c3ccc(N(C)C)cc3)cc2)C(=O)C2CCCCC2)c1 [Compound 7, Fexaramine, reference compound] |  | 12.8 | 96.6 |  |  | 130.9
3 | COc1ccc(C23CCC(CN(C(=O)c4ccncc4C)c4cc(Cl)cc(Cl)c4)(CC2)CC3)cc1C#N [Compound 20q] | strong dual agonist potencies | 85.7 | 79.6 | 79 | 33 | 
